These are literature values, as cited in patent publication EP1382610A2, “Conductive metal-containing nucleic acids” (The University of Saskatchewan, priority 1997, dated 1999).

The conditions of the data set: imino protons.

As for `Nc1nc2nc[nH]c2c(=O)[nH]1` [G, guanine], the pKa was 9.4. On to `Cc1c[nH]c(=O)[nH]c1=O` [T, thymine], for which the pKa is 9.9.

In general, pKa refers to the negative logarithm of the acid dissociation constant.
